The values below come from ChEMBL document CHEMBL1201862, “PubChem BioAssay data set” (2004).

Assay [1] addresses Eukaryotic translation initiation factor 4H (Homo sapiens, UniProt Q15056). As to the kind of experiment: human eIF4H binding inhibitors, primary screen, translation initiation inhibitor project, biochemical, uHTS, fluorescence polarization (AID 2012).
Assay [2] addresses Polyadenylate-binding protein 1 (Homo sapiens, UniProt P11940). Kind of assay: PABP poly(A) RNA binding inhibitors, primary screen, biochemical, fluorescence polarization, uHTS (AID 2014). A general note: In fluorescence polarisation assays a small probe gives low polarisation when free and higher when bound to something large.
Assay [3] has as its target T1, Eukaryotic translation initiation factor 2-alpha kinase 3 (Homo sapiens, UniProt Q9NZJ5).
T1 sequence (Q9NZJ5 whole entry): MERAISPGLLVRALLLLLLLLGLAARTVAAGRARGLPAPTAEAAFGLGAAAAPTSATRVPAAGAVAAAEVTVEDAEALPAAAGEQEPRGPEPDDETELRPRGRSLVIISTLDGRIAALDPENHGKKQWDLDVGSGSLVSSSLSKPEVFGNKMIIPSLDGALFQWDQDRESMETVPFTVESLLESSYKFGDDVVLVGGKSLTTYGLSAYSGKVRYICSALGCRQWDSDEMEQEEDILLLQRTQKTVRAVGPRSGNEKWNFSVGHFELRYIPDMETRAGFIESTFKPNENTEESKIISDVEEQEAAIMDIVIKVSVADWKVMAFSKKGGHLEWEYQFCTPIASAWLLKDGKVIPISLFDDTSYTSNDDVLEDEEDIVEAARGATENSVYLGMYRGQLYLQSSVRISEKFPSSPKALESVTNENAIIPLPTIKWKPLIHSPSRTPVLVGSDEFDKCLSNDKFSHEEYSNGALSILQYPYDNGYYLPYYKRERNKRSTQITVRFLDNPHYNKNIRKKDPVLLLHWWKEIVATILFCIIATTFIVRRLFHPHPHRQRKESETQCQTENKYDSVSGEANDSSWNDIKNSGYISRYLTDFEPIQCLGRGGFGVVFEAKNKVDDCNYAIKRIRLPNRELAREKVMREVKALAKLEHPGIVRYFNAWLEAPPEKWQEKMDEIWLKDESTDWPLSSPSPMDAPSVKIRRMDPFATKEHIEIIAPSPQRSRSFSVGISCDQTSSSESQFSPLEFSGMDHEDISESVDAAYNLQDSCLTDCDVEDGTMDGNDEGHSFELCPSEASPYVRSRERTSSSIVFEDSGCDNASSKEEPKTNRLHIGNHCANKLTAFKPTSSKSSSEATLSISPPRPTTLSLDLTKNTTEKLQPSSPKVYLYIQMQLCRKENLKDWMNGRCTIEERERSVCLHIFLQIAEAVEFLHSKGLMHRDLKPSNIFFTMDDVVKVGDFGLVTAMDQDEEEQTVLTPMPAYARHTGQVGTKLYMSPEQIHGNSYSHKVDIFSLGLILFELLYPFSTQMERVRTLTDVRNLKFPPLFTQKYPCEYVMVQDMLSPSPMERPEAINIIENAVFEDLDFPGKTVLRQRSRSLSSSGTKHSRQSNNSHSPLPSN
Kind of assay: Dose response cell-based high-throughput screening assay to measure PERK inhibition. [Related pubchem assays: 1416 ]. In kind it is functional.

In assay [4] the target is T2, Heat shock factor protein 1 (Mus musculus, UniProt P38532).
T2 sequence (P38532 whole entry): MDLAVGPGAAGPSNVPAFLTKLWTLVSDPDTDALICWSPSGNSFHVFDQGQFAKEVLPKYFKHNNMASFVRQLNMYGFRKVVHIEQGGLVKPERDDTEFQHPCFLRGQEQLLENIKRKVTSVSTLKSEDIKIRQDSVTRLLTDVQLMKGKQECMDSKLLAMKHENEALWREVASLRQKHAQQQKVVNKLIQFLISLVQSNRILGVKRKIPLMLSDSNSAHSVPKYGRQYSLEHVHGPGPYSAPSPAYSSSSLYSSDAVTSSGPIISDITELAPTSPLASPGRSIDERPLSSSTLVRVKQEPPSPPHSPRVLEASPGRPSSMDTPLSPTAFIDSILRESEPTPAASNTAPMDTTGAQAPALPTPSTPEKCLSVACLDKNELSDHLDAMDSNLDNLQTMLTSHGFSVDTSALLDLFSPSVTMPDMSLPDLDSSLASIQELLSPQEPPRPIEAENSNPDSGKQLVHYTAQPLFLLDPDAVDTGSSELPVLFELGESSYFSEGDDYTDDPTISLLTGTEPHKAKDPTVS
Kind of assay: inhibition of MG132-induced HSE-luciferase signal, confirmation, cell-based, NIH3T3, luminescence, dose retest (AID 2382).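 Further: NIH3T3 fibroblasts with HSF1-driven luciferase reporter stressed by proteasome inhibitor MG132; luminescence from HSF1-driven luciferase expression after 8 hours of MG132 stress.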 Format: functional.

Assay [5] deals with T1, Eukaryotic translation initiation factor 2-alpha kinase 3. Kind of assay: Counterscreen assay for PERK inhibitors: Dose response cell-based high throughput screening assay to measure inhibition of PERK at 6 hours. [Related pubchem assays: 1522, 1416 ]. In kind it is functional. On the technique in general: Counterscreens check selectivity or assay interference.
The nature of assay [6]: NIH-3T3 fibroblast cytotoxicity, dose response, cytotoxicity control, cell-based, fluorescence, Alamar Blue, secondary assay (AID 2327).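 Further: NIH-3T3 mouse fibroblasts cultured with fluconazole at 8 µg/mL.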 Format: functional.
Assay [7] is described as follows: inhibitors of firefly luciferase expression or activity, dose response, H4 neuroglioma cells, luminescence (AID 1990). Format: functional, cell-based.
Assay [8] is described as follows: Luminescence Cell-Based Dose Response HTS to Identify Inhibitors of 5'UTR Stem-Loop Driven Prion Protein mRNA Translation in H4 Neuroglioblastoma Cells. [Related pubchem assays: 1827 (Project Summary), 1813 (Primary HTS)]. In kind it is functional.
A short description of assay [9]: inhibitors of SNCA 5'UTR-driven reporter translation, confirmation, H4 neuroglioma cells, luminescence (AID 1988). Format: functional, cell-based.
Assay [10] in a line: C. albicans growth with fluconazole, confirmation, fluorescence, retest (AID 2467). In kind it is functional, cell-based.
A short description of assay [11]: THP-1 cell cytotoxicity, dose response, cytotoxicity control for non-replicating M. tuberculosis project (AID 489025). Format: functional.
A short description of assay [12]: HepG2 cell cytotoxicity, dose response, cytotoxicity control for non-replicating M. tuberculosis project (AID 489018). Format: functional. Particulars: Mycobacterium tuberculosis.
Assay [13] in a line: Vero E6 cell cytotoxicity, dose response, cytotoxicity control for non-replicating M. tuberculosis project, secondary assay (AID 492998). Format: functional, VeroE6. Particulars: Vero C1008.
Assay [14] in a line: cytotoxicity in HEK-293T cells, dose response, cytotoxicity control for TCR NF-kB inhibitor project, luminescence, T-cell screen hits (AID 489026).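 Further: cells exposed to compound about 14 hours before the viability readout.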 In kind it is functional, cell-based.
Another assay concerns INS1. Kind of assay: beta cell apoptosis inhibitors, cytokine rescue, dose response, luminescence, retest (AID 449756).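 Further: cell death triggered by IL-1 beta plus TNF-alpha plus IFN-gamma mixture; protective hits raise ATP signal compared with cytokine alone wells.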 In kind it is functional, cell-based. Particulars: Rattus norvegicus.
For assay [15], the target named is T3, Carboxy-terminal domain RNA polymerase II polypeptide A small phosphatase 1 (Homo sapiens, UniProt Q9GZU7).
T3 sequence (Q9GZU7 whole entry): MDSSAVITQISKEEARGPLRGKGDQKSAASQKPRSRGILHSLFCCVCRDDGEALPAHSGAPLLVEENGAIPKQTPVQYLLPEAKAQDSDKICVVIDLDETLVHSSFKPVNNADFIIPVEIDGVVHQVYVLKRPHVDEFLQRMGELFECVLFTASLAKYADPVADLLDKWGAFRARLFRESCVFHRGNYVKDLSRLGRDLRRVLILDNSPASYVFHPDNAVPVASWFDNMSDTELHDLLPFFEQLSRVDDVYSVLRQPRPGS
As to the kind of experiment: inhibitors of CTDSP1, concentration-response testing, biochemical assay, absorbance-based, actives from ultra-high-throughput screening (AID 540297). Format: functional.

Assay [16] has as its target Acyl-homoserine lactone acylase PvdQ (Pseudomonas aeruginosa (strain LESB58), UniProt Q9I194). Kind of assay: P. aeruginosa PvdQ acylase inhibitors, dose response, biochemical, fluorescence, plate reader and imaging, cherry-picks (AID 493231).
A further assay addresses Bcl-2-like protein 10 (Homo sapiens, UniProt Q9HD36). As to the kind of experiment: displacers of TR3 peptide from Bcl-B, primary screen, selectivity assay for Bfl-1 inhibitor project, biochemical, fluorescence polarization, FITC-TR3 peptide (AID 748).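 Further: fluorescence polarization from a fluorescein-labelled TR3 peptide binding purified Bcl-B.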
The next assay addresses T4, Coagulation factor XII (Homo sapiens, UniProt P00748).
T4 sequence (P00748 whole entry): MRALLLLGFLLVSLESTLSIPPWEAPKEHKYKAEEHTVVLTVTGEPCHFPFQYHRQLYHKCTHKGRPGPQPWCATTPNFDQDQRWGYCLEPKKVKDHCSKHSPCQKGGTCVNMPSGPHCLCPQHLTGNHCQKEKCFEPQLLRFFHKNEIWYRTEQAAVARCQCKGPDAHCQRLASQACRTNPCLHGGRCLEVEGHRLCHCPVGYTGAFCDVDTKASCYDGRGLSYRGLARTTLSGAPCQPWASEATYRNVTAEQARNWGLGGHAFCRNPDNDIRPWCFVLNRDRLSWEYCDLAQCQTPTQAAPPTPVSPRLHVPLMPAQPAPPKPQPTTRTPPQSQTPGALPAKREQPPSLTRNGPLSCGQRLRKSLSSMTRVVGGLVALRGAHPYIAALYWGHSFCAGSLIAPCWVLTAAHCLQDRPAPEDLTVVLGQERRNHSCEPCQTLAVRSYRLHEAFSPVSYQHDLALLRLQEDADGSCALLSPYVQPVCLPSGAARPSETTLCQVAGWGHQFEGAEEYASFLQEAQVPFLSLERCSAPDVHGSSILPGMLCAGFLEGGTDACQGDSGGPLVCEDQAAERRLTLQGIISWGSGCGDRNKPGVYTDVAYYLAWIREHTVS
In kind it is functional.

For assay [17], the target named is T5, SUMO-activating enzyme (Homo sapiens, UniProt Q9UBT2). Kind of assay: SUMOylation inhibitor hit validation, confirmation, SUMOylation inhibitor project, biochemical, AlphaScreen (AID 2018). Format: functional.
Assay [18] has as its target T5, SUMO-activating enzyme. As to the kind of experiment: inhibitors of in vitro SUMOylation cascade, primary screen, biochemical, HTRF, uHTS (AID 2006). Format: protein-complex assay. Background: TR-FRET usually uses a lanthanide donor and a delayed reading to cut background.
A short description of assay [19]: inhibitors of intracellular T. cruzi replication, confirmation, NIH3T3 host cells, beta-gal luminescence (AID 2044).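 Further: intracellular parasites grown in NIH/3T3 mouse fibroblasts as host cells; luminescent beta-galactosidase reporter signal from transgenic T. cruzi replicating inside host cells; inhibitors lower the luminescence signal.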 In kind it is functional, cell-based.
A short description of assay [20]: cytotoxicity toward NIH3T3 fibroblasts, dose response, counter-screen, cell-based, ATP luminescence, mouse fibroblasts (AID 2010).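 Further: cells exposed to compound for about 90 hours before reading.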 Format: functional.
Assay [21] addresses T6, Microphthalmia-associated transcription factor (Homo sapiens, UniProt O75030).
T6 sequence (O75030 whole entry): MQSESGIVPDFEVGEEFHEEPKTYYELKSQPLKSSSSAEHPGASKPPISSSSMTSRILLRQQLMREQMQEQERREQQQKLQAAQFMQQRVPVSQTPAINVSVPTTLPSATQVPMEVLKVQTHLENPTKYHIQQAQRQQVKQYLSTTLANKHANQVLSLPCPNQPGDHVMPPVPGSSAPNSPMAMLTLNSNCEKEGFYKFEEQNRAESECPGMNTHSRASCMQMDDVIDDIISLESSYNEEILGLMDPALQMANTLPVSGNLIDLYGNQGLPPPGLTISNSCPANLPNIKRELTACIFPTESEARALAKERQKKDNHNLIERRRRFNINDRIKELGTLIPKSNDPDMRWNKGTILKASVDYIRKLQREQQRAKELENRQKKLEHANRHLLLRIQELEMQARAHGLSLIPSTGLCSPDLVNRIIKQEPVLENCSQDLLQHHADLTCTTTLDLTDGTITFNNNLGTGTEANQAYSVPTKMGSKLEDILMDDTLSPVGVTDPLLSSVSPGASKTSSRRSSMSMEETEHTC
As to the kind of experiment: TRPM1 promoter luciferase signal decrease, dose response, MITF inhibitor project, cell-based, SK-MEL-5, cherry-picked, set 3 (AID 493073).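 Further: SK-MEL-5 melanoma cells with luciferase driven by the MITF target TRPM1 promoter.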 In kind it is functional.

The nature of a further assay: cells. Format: functional.
The test system of another assay is Escherichia coli. Kind of assay: microbe, parasite or virus in culture.

SMILES strings stand for the structures. Activity calls are given as the source filed them. Some results are limits rather than exact numbers.

Sequence of Acyl-homoserine lactone acylase PvdQ (Q9I194 24-193 limits assumed): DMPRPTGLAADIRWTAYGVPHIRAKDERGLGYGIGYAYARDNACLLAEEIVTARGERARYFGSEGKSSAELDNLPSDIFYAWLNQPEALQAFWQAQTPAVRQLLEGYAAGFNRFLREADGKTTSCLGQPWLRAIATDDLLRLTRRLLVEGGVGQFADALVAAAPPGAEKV
Sequence of Acyl-homoserine lactone acylase PvdQ (Q9I194 217-762 limits assumed): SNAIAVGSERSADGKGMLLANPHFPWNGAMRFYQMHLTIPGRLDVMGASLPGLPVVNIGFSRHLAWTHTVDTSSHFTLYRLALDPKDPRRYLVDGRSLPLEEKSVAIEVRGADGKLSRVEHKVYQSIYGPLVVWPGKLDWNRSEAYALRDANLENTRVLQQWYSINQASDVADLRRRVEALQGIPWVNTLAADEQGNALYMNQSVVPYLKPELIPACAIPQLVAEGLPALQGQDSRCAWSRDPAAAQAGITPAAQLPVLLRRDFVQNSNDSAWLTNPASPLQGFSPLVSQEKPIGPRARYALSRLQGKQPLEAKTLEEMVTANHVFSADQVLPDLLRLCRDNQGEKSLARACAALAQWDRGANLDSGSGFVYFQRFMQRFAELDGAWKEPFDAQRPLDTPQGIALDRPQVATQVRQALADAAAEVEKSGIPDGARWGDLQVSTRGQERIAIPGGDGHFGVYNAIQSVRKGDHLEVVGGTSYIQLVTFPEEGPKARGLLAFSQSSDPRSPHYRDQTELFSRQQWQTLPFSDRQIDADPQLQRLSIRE
T5 sequence (Q9UBE0 whole entry): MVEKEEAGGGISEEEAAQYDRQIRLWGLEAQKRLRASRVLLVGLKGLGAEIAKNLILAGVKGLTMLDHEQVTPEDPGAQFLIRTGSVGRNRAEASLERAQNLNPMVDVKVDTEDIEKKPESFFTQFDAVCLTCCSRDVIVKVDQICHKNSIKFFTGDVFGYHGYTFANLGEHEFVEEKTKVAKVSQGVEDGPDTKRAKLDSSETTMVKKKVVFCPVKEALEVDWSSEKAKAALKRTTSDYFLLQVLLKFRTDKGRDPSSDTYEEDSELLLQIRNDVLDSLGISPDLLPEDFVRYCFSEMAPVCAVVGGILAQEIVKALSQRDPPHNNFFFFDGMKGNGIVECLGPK
T5 sequence (Q9UBT2 whole entry): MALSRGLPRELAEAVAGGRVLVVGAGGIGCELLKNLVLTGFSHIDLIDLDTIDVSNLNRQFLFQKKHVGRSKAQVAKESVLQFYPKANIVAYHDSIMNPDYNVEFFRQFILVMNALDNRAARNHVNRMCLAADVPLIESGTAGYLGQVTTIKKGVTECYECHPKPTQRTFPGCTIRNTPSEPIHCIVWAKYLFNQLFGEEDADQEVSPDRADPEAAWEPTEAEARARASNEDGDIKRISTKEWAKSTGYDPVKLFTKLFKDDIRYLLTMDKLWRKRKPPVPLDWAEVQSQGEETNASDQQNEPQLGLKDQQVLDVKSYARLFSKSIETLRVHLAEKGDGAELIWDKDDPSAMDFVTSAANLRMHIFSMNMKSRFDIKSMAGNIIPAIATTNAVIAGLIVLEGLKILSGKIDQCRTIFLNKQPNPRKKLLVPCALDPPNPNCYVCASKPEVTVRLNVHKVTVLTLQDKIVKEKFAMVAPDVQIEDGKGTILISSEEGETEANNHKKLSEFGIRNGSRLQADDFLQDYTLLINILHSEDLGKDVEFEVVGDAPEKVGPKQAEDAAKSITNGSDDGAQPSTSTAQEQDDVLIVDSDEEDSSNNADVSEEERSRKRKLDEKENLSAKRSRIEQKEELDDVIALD
Sequence of Bcl-2-like protein 10 (Q9HD36 whole entry): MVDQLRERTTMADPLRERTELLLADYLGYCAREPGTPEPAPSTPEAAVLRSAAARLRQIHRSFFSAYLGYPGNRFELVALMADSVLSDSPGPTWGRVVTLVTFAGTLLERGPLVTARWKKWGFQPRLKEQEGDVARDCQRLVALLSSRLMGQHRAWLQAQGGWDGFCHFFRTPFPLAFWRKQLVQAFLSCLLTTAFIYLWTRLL
Sequence of Polyadenylate-binding protein 1 (P11940 whole entry): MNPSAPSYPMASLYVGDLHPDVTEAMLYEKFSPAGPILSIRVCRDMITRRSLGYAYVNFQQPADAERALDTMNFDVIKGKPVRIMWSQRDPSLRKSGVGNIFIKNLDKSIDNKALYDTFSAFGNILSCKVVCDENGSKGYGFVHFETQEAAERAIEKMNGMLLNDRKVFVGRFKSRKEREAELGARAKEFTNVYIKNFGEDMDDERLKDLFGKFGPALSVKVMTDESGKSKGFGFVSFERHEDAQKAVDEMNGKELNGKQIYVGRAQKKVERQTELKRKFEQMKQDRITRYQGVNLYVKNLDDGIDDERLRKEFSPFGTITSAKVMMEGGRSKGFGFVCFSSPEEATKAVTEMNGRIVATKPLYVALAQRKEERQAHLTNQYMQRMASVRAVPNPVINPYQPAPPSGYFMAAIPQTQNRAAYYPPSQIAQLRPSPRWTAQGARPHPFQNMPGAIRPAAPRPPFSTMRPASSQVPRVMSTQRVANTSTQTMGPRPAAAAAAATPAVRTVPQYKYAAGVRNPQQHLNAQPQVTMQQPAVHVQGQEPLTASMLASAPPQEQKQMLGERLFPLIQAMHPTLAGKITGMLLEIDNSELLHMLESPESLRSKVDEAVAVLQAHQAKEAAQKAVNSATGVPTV

With `O=C(N=Nc1c(O)[nH]c2ccccc12)c1cc(-c2cccs2)[nH]n1`, the IC50 – broadly, the point on the concentration scale where inhibition reaches its midpoint – in assay [1] was 11.5 µM (active); in assay [2], 28.8 µM (active).

On to `Cc1ccccc1CO/N=C/c1[nH]ncc1Br`, for which the EC50 (as a rule, the concentration giving half of the maximal effect) is given as > 55.7 µM (not active) in assay [3], > 195 µM (not active) in assay [4] and > 55.7 µM (not active) in [5].

On to `CCCCCCCCCCn1ccc(=N)cc1`, for which the EC50 is 22.5 µM (active) in [6]; 10.3 µM (active) in assay [7]; 8.51 µM (active) in assay [8]; 8.93 µM (active) in assay [9]; 0.055 µM (active) in assay [10]. The results for the CC50 in assay [11], in assay [12] and in assay [13] were 1.57 µM (active), 7.25 µM (active) and 11.4 µM (active), respectively. Also, the IC50 in [14] was > 80 µM (inactive). Besides, the AC50 (in general, the concentration giving half of the maximal activity seen) in the assay on INS1 is 0.471 µM (active).

Consider `C[N+]1(CC2COC3(CCCCC3)O2)CCCCC1` (centres undefined), for which the IC50 is > 100 µM (inactive) in assay [1], 6.05 µM (active) in [2] and 8.39 µM (active) in assay [15].

Take `C[C@]12CCC[C@H](O1)[C@H]([C@@H](O)c1ccccc1)O2`: the AC50 in assay [16] is 54 µM (active).

For `Cc1ccc(S(=O)(=O)NCC(=O)OCC(=O)Nc2ncc(Cl)cc2Cl)cc1`, the IC50 is 71.1 µM (inactive) on Bcl-2-like protein 10 and > 50 µM (inactive) on Coagulation factor XII.

As to `N#CC(c1ccc(F)cc1)c1ccc(C(=O)c2ccccc2)cc1` (centres undefined), the AC50 in assay [16] is > 100 µM (inactive).

On to `CN(C)c1cccc(C(=O)OCc2cc(=O)oc3cc(O)ccc23)c1`, for which the IC50 at Bcl-2-like protein 10 was 62.4 µM (inactive); at SUMO-activating enzyme [17], 5.73 µM (active); at SUMO-activating enzyme [18], 22.6 µM (active).

Consider `O=[N+]([O-])c1ccc(/C=N/n2c(CO)nc3ccccc32)s1`, for which the EC50 is 0.568 µM (active) in [19] and 42 µM (active) in [20]. In addition, the CC50 (usually the concentration giving 50% cytotoxicity) in assay [11] was 32.4 µM (active); in assay [12] it was > 20 µM (active); in assay [13], 14.7 µM (active). For the same compound, the AC50 in assay [21] was 1.97 µM (active); in the assay with INS1, 4.91 µM (active); in the assay on Escherichia coli, 121 µM (active). Also, the 50% inhibitory concentration (IC50) in “cells” is 1.51 µM (active).
